# Entries after “also recorded” stand apart in the source; their conditions may differ.
# Experiments:
# [1] = test system: placenta cytotrophoblast cell line (HTR); test: Secretion of VEGF, sFLT-1 and PlGF by HTR cytotrophoblast cell line under hypoxia; type: cell-based
# Protocol: (§1) We have shown that 5 μM, 10 μM and 30 μM of 2-ME can reduce the secreted levels of VEGF up to 75% in a dose dependent manner in a placenta cytotrophoblast cell line (HTR) under hypoxia. […] Similarly, 5 μM, 10 μM and 30 μM of 2-ME can reduce the secreted sFLT-1 levels by up to 50% or more in a dose dependent manner in the same cell lines under hypoxia (see FIGS. 1-3).
# [2] = test system: BeWo cells; test: Secretion of VEGF, sFLT-1 and PlGF by BeWo cytotrophoblast cell line under hypoxia; type: cell-based; settings: 5 μM, 10 μM and 30 μM 2-ME
# [3] = test system: HTR-8/SV neo trophoblast cells; test: Blot of protein expression in trophoblast cell lysates under hypoxic conditions; type: cell-based; settings: 5 μM, 10 μM and 30 μM 2-ME
# Protocol: FIG. 5 is a blot showing that 2-methoxyestradiol treatment of HTR-8/SV neo trophoblast cells downregulations HIF-1α, VEGF165, Flt-1, and sFlt-1 expression in cell lysates under hypoxic conditions.
# as §1
# [4] = test system: sFLT-1 and VEGF; test: Blood levels of sFLT-1 and VEGF in normal mice treated with 2-ME; type: in vivo; settings: twice daily 30 μM 2-ME, blood samples
# Protocol: Normal mice were treated with 2-ME twice daily with 30 μM of 2-ME. Blood samples were then obtained and assayed for the level of sFLT-1 and VEGF. […] The 30 μM concentration represents approximately the normal physiological level of 2-ME that is found in the blood of pregnant women in the late second trimester or early third trimester through the end of pregnancy. At the end of a pregnancy, levels of 2-ME in non-preeclamptic subjects drops back to non pregnant levels, which are approximately 1-5 μM.
# [5] = test system: cytotrophoblasts from the placenta; test: Expression of HIF-1α and angiogenic factors in cytotrophoblasts from the placenta (summary statement); type: cell-based
# [6] = test system: tumor and non-tumor cell lines; settings: wide variety of tumor and non-tumor cell lines; cited from earlier work
# [7] = administered orally; cited from earlier work
# [8] = test system: HIF-1; settings: cited from earlier work
# [9] = 5 μM, 10 μM and 30 μM 2-ME, dose dependent, HTR cell line, hypoxia
compound,measurement,setting,value
"COc1cc2c(cc1O)CC[C@@H]1[C@@H]2CC[C@]2(C)[C@@H](O)CC[C@@H]12 [2-ME, 2-methoxyestradiol]",PlGF secretion levels,"[1]; 5 μM, 10 μM and 30 μM 2-ME, HTR cell line, hypoxia",reduce PlGF secretion levels in a dose dependent manner
same,PlGF secretion levels,"[1]; 5 μM, 10 μM and 30 μM 2-ME, HTR cell line, hypoxia, listed as 2-methoxyestradiol",reduction of PlGF secretion
same,reduction of secreted levels of VEGF,[1]; [9],up to 75%
same,reduction of secreted sFLT-1 levels,[1]; [9],≥ 50%
same,sFLT-1 production / secretion,[1]; HTR / HTR-8/SV neo cells,reduction of sFLT-1 production
same,secretion of VEGF,[1]; HTR / HTR-8/SV neo cells,reduces secretion of VEGF; also recorded: reduction
same,PlGF secretion levels,[2],reduce PlGF secretion levels in a dose dependent manner
same,reduction of secreted sFLT-1 levels,[2]; dose dependent,≥ 50%
same,expression level of Flt-1 in cell lysates,[3],downregulated
same,expression level of HIF-1α in cell lysates,[3],downregulated
same,expression level of VEGF165 in cell lysates,[3],downregulated
same,expression level of sFlt-1 in cell lysates,[3],downregulated
same,expression level of Flt-1 in cell lysates,[3]; listed as 2-methoxyestradiol,downregulations
same,expression level of HIF-1α in cell lysates,[3]; listed as 2-methoxyestradiol,downregulations
same,expression level of VEGF165 in cell lysates,[3]; listed as 2-methoxyestradiol,downregulations
same,expression level of sFlt-1 in cell lysates,[3]; listed as 2-methoxyestradiol,downregulations
same,bound VEGF,[4],decrease in bound VEGF
same,reduction in sFLT-1 expression,[4],50%
same,expression of HIF-1α,[5],decreases
same,"expression of VEGF, PlGF, VEGF Receptor 1 (VEGFR1) and sFLT-1",[5],dramatic decrease
same,anti-proliferative activity,[6],potent
same,apoptosis,[6],induces apoptosis
same,antitumor and antiangiogenic activity,[7],exhibits antitumor and antiangiogenic activity
same,toxicity,[7],little or no toxicity
same,HIF-1 induced transcriptional activation of VEGF expression,[8],inhibits
same,HIF-1 level,[8]; posttranscriptional level,downregulate

# — patent publication US8273383B2, “Methods and compositions for treatment of preeclampsia” (Children's Medical Center Corporation, priority 2004, dated 2012)
